# From PubChem BioAssay AID2060883 (Molecular Pharmacology Branch, DTP, NCI, 2025)
# Values joined by “and” are separate entries in the source; they are usually repeats but may differ in a detail not shown here. Identical values can stand only once.
# Tested on: 843782-103-R-J1-PDC complex spheroid viability
# Experiment: Anticancer human tumor 843782-103-R-J1-PDC patient-derived lung adenocarcinoma cell line growth inhibition [RAS]
# Details: for IC50: curve of first compound; for viability, T/C: stronger effect = lower value
# Outline: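 Agents were tested in combination matrices in half-log decrements from a top concentration at or near clinical Cmax (10 microM if undetermined). Targets were multi-cell spheroids of tumour lines plus HUVEC and MSC stromal cells.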
# 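Also: viability read after seven days of compound exposure.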
smiles,measurement,setting,value
CC1(C)CCC(Nc2ncc(C(F)(F)F)c(-c3c[nH]c4c(P(C)(C)=O)c(C#N)ccc34)n2)CN1 (stereo not drawn) + C=CC(=O)N1CCN(c2nc(OCC3CCCN3C)nc3c(F)c(-c4nc(N)cc(C)c4C(F)(F)F)c(Cl)cc23)C(C)C1,IC50,second compound 0.00316 µM,6.62 nM
same,IC50,second compound 0.01 µM,7.23 nM
same,IC50,second compound 0.0316 µM,7.99 nM
same,IC50,second compound 0.1 µM,5.81 nM
same,IC50,second compound 0.316 µM,6.75 nM
same,IC50,second compound 1 µM,6.96 nM
same,"viability, T/C","second compound 0.00316 µM, first compound 0.000949 µM",85.3%
same,"viability, T/C","second compound 0.00316 µM, first compound 0.003 µM",72.8%
same,"viability, T/C","second compound 0.00316 µM, first compound 0.00949 µM",38.8%
same,"viability, T/C","second compound 0.00316 µM, first compound 0.03 µM",25.7%
same,"viability, T/C","second compound 0.00316 µM, first compound 0.0949 µM",13.6%
same,"viability, T/C","second compound 0.00316 µM, first compound 0.3 µM",21.5%
same,"viability, T/C","second compound 0.01 µM, first compound 0.000949 µM",89.1%
same,"viability, T/C","second compound 0.01 µM, first compound 0.003 µM",75.6%
same,"viability, T/C","second compound 0.01 µM, first compound 0.00949 µM",42%
same,"viability, T/C","second compound 0.01 µM, first compound 0.03 µM",23%
same,"viability, T/C","second compound 0.01 µM, first compound 0.0949 µM",18.5%
same,"viability, T/C","second compound 0.01 µM, first compound 0.3 µM",18.8%
same,"viability, T/C","second compound 0.0316 µM, first compound 0.000949 µM",82.7%
same,"viability, T/C","second compound 0.0316 µM, first compound 0.003 µM",81.2%
same,"viability, T/C","second compound 0.0316 µM, first compound 0.00949 µM",44.5%
same,"viability, T/C","second compound 0.0316 µM, first compound 0.03 µM",22.1%
same,"viability, T/C","second compound 0.0316 µM, first compound 0.0949 µM",20.6%
same,"viability, T/C","second compound 0.0316 µM, first compound 0.3 µM",18%
same,"viability, T/C","second compound 0.1 µM, first compound 0.000949 µM",87.8%
same,"viability, T/C","second compound 0.1 µM, first compound 0.003 µM",70%
same,"viability, T/C","second compound 0.1 µM, first compound 0.00949 µM",35.7%
same,"viability, T/C","second compound 0.1 µM, first compound 0.03 µM",18.3%
same,"viability, T/C","second compound 0.1 µM, first compound 0.0949 µM",19.3%
same,"viability, T/C","second compound 0.1 µM, first compound 0.3 µM",18.9%
same,"viability, T/C","second compound 0.316 µM, first compound 0.000949 µM",87.3%
same,"viability, T/C","second compound 0.316 µM, first compound 0.003 µM",72.7%
same,"viability, T/C","second compound 0.316 µM, first compound 0.00949 µM",40.9%
same,"viability, T/C","second compound 0.316 µM, first compound 0.03 µM",21.7%
same,"viability, T/C","second compound 0.316 µM, first compound 0.0949 µM",19.3%
same,"viability, T/C","second compound 0.316 µM, first compound 0.3 µM",19.6%
same,"viability, T/C","second compound 1 µM, first compound 0.000949 µM",95.3%
same,"viability, T/C","second compound 1 µM, first compound 0.003 µM",69.8%
same,"viability, T/C","second compound 1 µM, first compound 0.00949 µM",45%
same,"viability, T/C","second compound 1 µM, first compound 0.03 µM",23.5%
same,"viability, T/C","second compound 1 µM, first compound 0.0949 µM",19.5%
same,"viability, T/C","second compound 1 µM, first compound 0.3 µM",23.7%
O=C(c1ccc(F)c(F)c1Nc1ccc(I)cc1F)N1CC(O)([C@@H]2CCCCN2)C1,"viability, T/C",compound 0.00316 µM,99.8% and 99.4% and 102% (2×)
same,"viability, T/C",compound 0.01 µM,93.1% [middle of 4 runs]
same,"viability, T/C",compound 0.316 µM,48.7% [middle of 4 runs]
same,"viability, T/C",compound 1 µM,27.1% [middle of 4 runs]
C=CC(=O)Nc1cc(Nc2nccc(-c3cn(C)c4ccccc34)n2)c(OC)cc1N(C)CCN(C)C + CCn1c(-c2cc(N3CCN(C)CC3)cnc2C(C)OC)c2c3cc(ccc31)-c1csc(n1)CC(NC(=O)C1CC1C)C(=O)N1CCCC(N1)C(=O)OCC(C)(C)C2,IC50,second compound 0.000949 µM,296 nM
same,IC50,second compound 0.003 µM,28.9 nM
same,IC50,second compound 0.00949 µM,< 3.16 nM
same,IC50,second compound 0.03 µM,< 3.16 nM
same,IC50,second compound 0.0949 µM,< 3.16 nM
same,IC50,second compound 0.3 µM,< 3.16 nM
same,"viability, T/C","second compound 0.000949 µM, first compound 0.00316 µM",81.5%
same,"viability, T/C","second compound 0.000949 µM, first compound 0.01 µM",69%
same,"viability, T/C","second compound 0.000949 µM, first compound 0.0316 µM",71.1%
same,"viability, T/C","second compound 0.000949 µM, first compound 0.1 µM",56.2%
same,"viability, T/C","second compound 0.000949 µM, first compound 0.316 µM",49.4%
same,"viability, T/C","second compound 0.000949 µM, first compound 1 µM",41.3%
same,"viability, T/C","second compound 0.003 µM, first compound 0.00316 µM",60.1%
same,"viability, T/C","second compound 0.003 µM, first compound 0.01 µM",55.5%
same,"viability, T/C","second compound 0.003 µM, first compound 0.0316 µM",50%
same,"viability, T/C","second compound 0.003 µM, first compound 0.1 µM",41%
same,"viability, T/C","second compound 0.003 µM, first compound 0.316 µM",33.9%
same,"viability, T/C","second compound 0.003 µM, first compound 1 µM",30.2%
same,"viability, T/C","second compound 0.00949 µM, first compound 0.00316 µM",34.9%
same,"viability, T/C","second compound 0.00949 µM, first compound 0.01 µM",32.6%
same,"viability, T/C","second compound 0.00949 µM, first compound 0.0316 µM",32.1%
same,"viability, T/C","second compound 0.00949 µM, first compound 0.1 µM",25.7%
same,"viability, T/C","second compound 0.00949 µM, first compound 0.316 µM",26.9%
same,"viability, T/C","second compound 0.00949 µM, first compound 1 µM",18.3%
same,"viability, T/C","second compound 0.03 µM, first compound 0.00316 µM",18.6%
same,"viability, T/C","second compound 0.03 µM, first compound 0.01 µM",19.4%
same,"viability, T/C","second compound 0.03 µM, first compound 0.0316 µM",17.6%
same,"viability, T/C","second compound 0.03 µM, first compound 0.1 µM",16.9%
same,"viability, T/C","second compound 0.03 µM, first compound 0.316 µM",17.6%
same,"viability, T/C","second compound 0.03 µM, first compound 1 µM",14.2%
same,"viability, T/C","second compound 0.0949 µM, first compound 0.00316 µM",17.8%
same,"viability, T/C","second compound 0.0949 µM, first compound 0.01 µM",13.2%
same,"viability, T/C","second compound 0.0949 µM, first compound 0.0316 µM",13.7%
same,"viability, T/C","second compound 0.0949 µM, first compound 0.1 µM",15.4%
same,"viability, T/C","second compound 0.0949 µM, first compound 0.316 µM",14%
same,"viability, T/C","second compound 0.0949 µM, first compound 1 µM",12.8%
same,"viability, T/C","second compound 0.3 µM, first compound 0.00316 µM",13.8%
same,"viability, T/C","second compound 0.3 µM, first compound 0.01 µM",13.2%
same,"viability, T/C","second compound 0.3 µM, first compound 0.0316 µM",10.6%
same,"viability, T/C","second compound 0.3 µM, first compound 0.1 µM",11.8%
same,"viability, T/C","second compound 0.3 µM, first compound 0.316 µM",13.6%
same,"viability, T/C","second compound 0.3 µM, first compound 1 µM",10.4%
